Earlier results in patent US8222294B2, “Combinations of an anti emetic agent and an enkephalinase inhibitor” (Bioproject, priority 2004, dated 2012).

System: cholera toxins
Settings: cited from earlier work

Compound | antisecretory activity
Cc1nccn1CC1CCc2c(c3ccccc3n2C)C1=O (stereo not drawn) [ondansetron] | not
CC(=O)SC[C@H](Cc1ccccc1)C(=O)NCC(=O)OCc1ccccc1 [dexecadotril] | active
CC(=O)SCC(Cc1ccccc1)C(=O)NCC(=O)OCc1ccccc1 (stereo not drawn) [racecadotril] | active
